From PubChem BioAssay (NCI)
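Results reflect a 48-hour exposure of cells in 96-well plates to compound at five concentrations. GI50 marks 50% less growth. TGI: total growth inhibition.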

Legend:
Experiment in all cases: growth of human tumour cells (NCI), 48 h
[1] = system: A498 renal
[2] = system: A549 NSCLC
[3] = system: ACHN renal
[4] = system: CAKI-1 renal
[5] = system: CCRF-CEM leukemia
[6] = system: EKVX NSCLC
[7] = system: HCC-2998 colon
[8] = system: HCT-15 colon
[9] = system: HL-60(TB) leukemia
[10] = system: HOP-62 NSCLC
[11] = system: HOP-92 NSCLC
[12] = system: HS 578T breast
[13] = system: IGROV1 ovarian
[14] = system: K-562 leukemia
[15] = system: KM12 colon
[16] = system: LOX IMVI melanoma
[17] = system: MCF7 breast
[18] = system: MDA-MB-231 breast
[19] = system: MDA-MB-468 breast
[20] = system: MOLT-4 leukemia
[21] = system: NCI-H226 lung
[22] = system: NCI-H23 lung
[23] = system: NCI-H460 lung
[24] = system: OVCAR-4 ovarian
[25] = system: OVCAR-5 ovarian
[26] = system: PC-3 prostate
[27] = system: RXF 393 renal
[28] = system: SF-268 CNS
[29] = system: SF-295 CNS
[30] = system: SF-539 CNS
[31] = system: SK-MEL-28 melanoma
[32] = system: SK-MEL-5 melanoma
[33] = system: SK-OV-3 ovarian
[34] = system: SN12C renal
[35] = system: SNB-19 CNS
[36] = system: SNB-75 CNS
[37] = system: SR leukemia
[38] = system: TK-10 renal
[39] = system: UACC-62 melanoma
[40] = system: UO-31 renal
[41] = system: 786-0 renal
[42] = system: BT-549 breast
[43] = system: COLO 205 colon
[44] = system: DU-145 prostate
[45] = system: HCT-116 colon
[46] = system: HT29 colon
[47] = system: M14 melanoma
[48] = system: MALME-3M melanoma
[49] = system: MDA-MB-435
[50] = system: NCI-H522 lung
[51] = system: OVCAR-3 ovarian
[52] = system: RPMI-8226 leukemia
[53] = system: SK-MEL-2 melanoma
[54] = system: SW-620 colon
[55] = system: T-47D breast
[56] = system: U251 CNS
[57] = system: UACC-257 melanoma

Compound `CSc1ccc(C(=O)Nc2ccc3nnn(/C(C#N)=C/c4ccccn4)c3c2)cc1` has a GI50 [1] of 13.2 µM, a TGI [1] of 53.3 µM and a GI50 [2] of 3.46 µM. The TGI [2] was over 100 µM, the GI50 [3] was 1.74 µM and the TGI [3] was 3.11 µM. For the same compound, the GI50 [4] was 1.33 µM, the TGI [4] was 2.65 µM and the GI50 [5] was 2.1 µM. For the same compound, the TGI [5] was over 100 µM, the GI50 [6] was 2.15 µM and the TGI [6] was 4.89 µM. It also gave a GI50 [7] of 1.79 µM, a TGI [7] of 3.26 µM and a GI50 [8] of 1.66 µM. For the same compound, the TGI [8] was 3.53 µM, the GI50 [9] was 2.67 µM and the TGI [9] was over 100 µM. The GI50 [10] was 3.11 µM, the TGI [10] was 12.6 µM and the GI50 [11] was 1.79 µM. The TGI [11] was 4.62 µM, the GI50 [12] was 2.51 µM and the TGI [12] was 7.12 µM. It also gave a GI50 [13] of 1.91 µM, a TGI [13] of 3.8 µM and a GI50 [14] of 2.53 µM. It also gave a TGI [14] of over 100 µM, a GI50 [15] of 1.94 µM and a TGI [15] of 4.65 µM. For the same compound, the GI50 [16] was 1.52 µM, the TGI [16] was 2.92 µM and the GI50 [17] was 1.28 µM. The TGI [17] was 2.72 µM, the GI50 [18] was 1.76 µM and the TGI [18] was 3.23 µM. The GI50 [19] was 1.31 µM, the TGI [19] was 2.91 µM and the GI50 [20] was 3.57 µM. It also gave a TGI [20] of over 100 µM, a GI50 [21] of 3.76 µM and a TGI [21] of 26.9 µM. The GI50 [22] was 1.78 µM, the TGI [22] was 3.5 µM and the GI50 [23] was 2.2 µM. The TGI [23] was 4.35 µM, the GI50 [24] was 4.53 µM and the TGI [24] was over 100 µM. The GI50 [25] was 1.75 µM, the TGI [25] was 3.19 µM and the GI50 [26] was 2.74 µM. It also gave a TGI [26] of 7.14 µM, a GI50 [27] of 1.5 µM and a TGI [27] of 2.84 µM. The GI50 [28] was 4.16 µM, the TGI [28] was 45.3 µM and the GI50 [29] was 6.89 µM. The TGI [29] was 21.4 µM, the GI50 [30] was 1.66 µM and the TGI [30] was 3.05 µM. For the same compound, the GI50 [31] was 1.68 µM, the TGI [31] was 3.11 µM and the GI50 [32] was 2.01 µM. For the same compound, the TGI [32] was 4.79 µM, the GI50 [33] was 24.5 µM and the TGI [33] was over 100 µM. The GI50 [34] was 2.13 µM, the TGI [34] was 4.97 µM and the GI50 [35] was 3.14 µM. The TGI [35] was 12.1 µM, the GI50 [36] was 3.97 µM and the TGI [36] was 25.4 µM. For the same compound, the GI50 [37] was 2.75 µM, the TGI [37] was over 100 µM and the GI50 [38] was 1.66 µM. It also gave a TGI [38] of 3.11 µM, a GI50 [39] of 1.68 µM and a TGI [39] of 3.35 µM. It also gave a GI50 [40] of 1.37 µM and a TGI [40] of 2.65 µM.
Compound `CNC(=O)c1cc(Oc2ccc3nc(NC(=O)Nc4cccc(OC(F)(F)F)c4)sc3c2)ccn1` has a GI50 [41] of 2.71 µM, a TGI [41] of 7.41 µM and a GI50 [1] of 4.25 µM. The TGI [1] was 9.77 µM, the GI50 [2] was 2.69 µM and the TGI [2] was over 100 µM. The GI50 [3] was 2.32 µM, the TGI [3] was 7.26 µM and the GI50 [42] was 3.21 µM. For the same compound, the TGI [42] was 9.02 µM, the GI50 [4] was 2.01 µM and the TGI [4] was 4.72 µM. The GI50 [5] was 9.07 µM, the TGI [5] was over 100 µM and the GI50 [43] was 5.43 µM. The TGI [43] was over 100 µM, the GI50 [44] was 3.64 µM and the TGI [44] was over 100 µM. It also gave a GI50 [6] of 3.56 µM, a TGI [6] of over 100 µM and a GI50 [7] of 8.69 µM. It also gave a TGI [7] of over 100 µM, a GI50 [45] of 4.67 µM and a TGI [45] of over 100 µM. It also gave a GI50 [8] of 4.07 µM, a TGI [8] of over 100 µM and a GI50 [9] of over 100 µM. The TGI [9] was over 100 µM, the GI50 [10] was 1.72 µM and the TGI [10] was 3.47 µM. It also gave a GI50 [11] of 1.66 µM, a TGI [11] of 4.46 µM and a GI50 [12] of 2.29 µM. For the same compound, the TGI [12] was 7.09 µM, the GI50 [46] was 7.9 µM and the TGI [46] was over 100 µM. For the same compound, the GI50 [13] was 4.65 µM, the TGI [13] was 21.6 µM and the GI50 [14] was 5.51 µM. It also gave a TGI [14] of over 100 µM, a GI50 [15] of 0.809 µM and a TGI [15] of over 100 µM. The GI50 [16] was 4.15 µM, the TGI [16] was 23.6 µM and the GI50 [47] was 5.76 µM. It also gave a TGI [47] of over 100 µM, a GI50 [48] of 1.82 µM and a TGI [48] of 5.3 µM. The GI50 [17] was 8.31 µM, the TGI [17] was over 100 µM and the GI50 [18] was 2.37 µM. It also gave a TGI [18] of 10.9 µM, a GI50 [49] of 4.27 µM and a TGI [49] of over 100 µM. The GI50 [19] was 2.16 µM, the TGI [19] was 13.5 µM and the GI50 [20] was over 100 µM. For the same compound, the TGI [20] was over 100 µM, the GI50 [21] was 2.56 µM and the TGI [21] was 6.14 µM. It also gave a GI50 [22] of 2.91 µM, a TGI [22] of 11.9 µM and a GI50 [23] of 2.58 µM. The TGI [23] was over 100 µM, the GI50 [50] was 3.5 µM and the TGI [50] was over 100 µM. The GI50 [51] was 3.27 µM, the TGI [51] was over 100 µM and the GI50 [24] was 2.97 µM. The TGI [24] was 9.23 µM, the GI50 [25] was 5.58 µM and the TGI [25] was over 100 µM. It also gave a GI50 [26] of 2.22 µM, a TGI [26] of over 100 µM and a GI50 [52] of over 100 µM. The TGI [52] was over 100 µM, the GI50 [27] was 1.91 µM and the TGI [27] was 4.82 µM. It also gave a GI50 [28] of 4.3 µM, a TGI [28] of 89 µM and a GI50 [29] of 1.7 µM. For the same compound, the TGI [29] was 4.17 µM, the GI50 [30] was 3.07 µM and the TGI [30] was 10.2 µM. The GI50 [53] was 2.51 µM, the TGI [53] was 8.12 µM and the GI50 [31] was 2.66 µM. The TGI [31] was over 100 µM, the GI50 [32] was 3.08 µM and the TGI [32] was over 100 µM. The GI50 [33] was 3 µM, the TGI [33] was 6.83 µM and the GI50 [34] was 5.11 µM. For the same compound, the TGI [34] was over 100 µM, the GI50 [35] was 2.22 µM and the TGI [35] was 5.55 µM. For the same compound, the GI50 [36] was 2.34 µM, the TGI [36] was 5.52 µM and the GI50 [37] was over 100 µM. The TGI [37] was over 100 µM, the GI50 [54] was 4.94 µM and the TGI [54] was over 100 µM. The GI50 [55] was 5.08 µM, the TGI [55] was over 100 µM and the GI50 [38] was 4.09 µM. The TGI [38] was 13.2 µM, the GI50 [56] was 2.43 µM and the TGI [56] was 6.27 µM. For the same compound, the GI50 [57] was 5.89 µM, the TGI [57] was over 100 µM and the GI50 [39] was 2.07 µM. It also gave a TGI [39] of 13.3 µM, a GI50 [40] of 3.93 µM and a TGI [40] of over 100 µM.
